ChEMBL document CHEMBL1201862, “PubChem BioAssay data set” (2004)
Active and inactive are the calls of the source. Cut-off read from the data, not from the text of the source, for most assays here: actives have a measured EC50 and inactives only a lower limit.

Assays:
[1] = molecular target: T1, Corticotropin-releasing factor receptor 2/Corticotropin-releasing factor-binding protein (Homo sapiens, UniProt P24387+Q13324); assay: activators of CRF receptor 2 with binding protein – uHTS hits, confirmation (AID 602473); assay type: functional; details: read-out: EC50_Mean
T1 sequence (Q13324 whole entry): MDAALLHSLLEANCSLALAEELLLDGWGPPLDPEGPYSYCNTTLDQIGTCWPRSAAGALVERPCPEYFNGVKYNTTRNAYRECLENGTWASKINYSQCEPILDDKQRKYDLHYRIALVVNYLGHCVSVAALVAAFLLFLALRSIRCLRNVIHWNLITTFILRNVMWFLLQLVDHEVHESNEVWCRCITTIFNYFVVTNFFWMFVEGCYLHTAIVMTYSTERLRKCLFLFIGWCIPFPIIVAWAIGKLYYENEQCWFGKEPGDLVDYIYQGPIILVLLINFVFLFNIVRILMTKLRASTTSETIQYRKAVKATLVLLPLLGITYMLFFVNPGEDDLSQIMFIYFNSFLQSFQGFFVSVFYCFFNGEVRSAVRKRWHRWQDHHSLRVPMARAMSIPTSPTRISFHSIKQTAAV
T1 sequence (P24387 whole entry): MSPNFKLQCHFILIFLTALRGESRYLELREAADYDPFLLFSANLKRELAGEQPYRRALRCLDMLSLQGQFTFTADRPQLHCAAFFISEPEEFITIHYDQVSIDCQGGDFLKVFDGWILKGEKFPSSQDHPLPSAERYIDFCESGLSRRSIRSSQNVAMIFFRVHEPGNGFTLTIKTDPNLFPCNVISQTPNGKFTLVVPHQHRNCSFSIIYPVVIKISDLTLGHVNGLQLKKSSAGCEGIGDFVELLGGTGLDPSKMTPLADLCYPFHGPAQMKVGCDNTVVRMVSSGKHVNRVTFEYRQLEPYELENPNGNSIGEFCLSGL

[2] = tested on: HEK293; assay: inhibitors of LMP1-driven NF-kB reporter, dose response, cell-based, HEK293, luciferase, cherry-pick (AID 588343); assay type: functional; details: Homo sapiens
[3] = molecular target: Latent membrane protein 1 (Human herpesvirus 4 (strain B95-8), UniProt P03230); assay: TES1-eGFP NF-kB reporter inhibition versus Tet-On dsRED, dose response, selectivity assay for LMP1 NF-kB inhibitor project, imaging, HEK293T, dual-color eGFP/dsRED, cherry-picks (AID 588398); assay type: functional, cell-based
Sequence of Latent membrane protein 1 (P03230 whole entry): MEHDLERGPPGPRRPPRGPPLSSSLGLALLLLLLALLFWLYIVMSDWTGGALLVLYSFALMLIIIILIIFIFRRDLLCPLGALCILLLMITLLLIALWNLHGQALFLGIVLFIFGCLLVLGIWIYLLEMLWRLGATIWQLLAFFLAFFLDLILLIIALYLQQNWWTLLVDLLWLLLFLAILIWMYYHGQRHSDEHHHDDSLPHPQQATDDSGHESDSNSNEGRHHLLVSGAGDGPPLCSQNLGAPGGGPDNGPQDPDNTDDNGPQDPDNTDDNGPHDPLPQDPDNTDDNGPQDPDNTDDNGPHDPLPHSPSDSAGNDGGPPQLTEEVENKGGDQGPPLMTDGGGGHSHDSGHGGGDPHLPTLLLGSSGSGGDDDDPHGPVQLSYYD

[4] = molecular target: Beta-galactosidase (Escherichia coli, UniProt Q8VNN2); assay: PubChem AID 485352; assay type: functional
Sequence of Beta-galactosidase (Q8VNN2 whole entry): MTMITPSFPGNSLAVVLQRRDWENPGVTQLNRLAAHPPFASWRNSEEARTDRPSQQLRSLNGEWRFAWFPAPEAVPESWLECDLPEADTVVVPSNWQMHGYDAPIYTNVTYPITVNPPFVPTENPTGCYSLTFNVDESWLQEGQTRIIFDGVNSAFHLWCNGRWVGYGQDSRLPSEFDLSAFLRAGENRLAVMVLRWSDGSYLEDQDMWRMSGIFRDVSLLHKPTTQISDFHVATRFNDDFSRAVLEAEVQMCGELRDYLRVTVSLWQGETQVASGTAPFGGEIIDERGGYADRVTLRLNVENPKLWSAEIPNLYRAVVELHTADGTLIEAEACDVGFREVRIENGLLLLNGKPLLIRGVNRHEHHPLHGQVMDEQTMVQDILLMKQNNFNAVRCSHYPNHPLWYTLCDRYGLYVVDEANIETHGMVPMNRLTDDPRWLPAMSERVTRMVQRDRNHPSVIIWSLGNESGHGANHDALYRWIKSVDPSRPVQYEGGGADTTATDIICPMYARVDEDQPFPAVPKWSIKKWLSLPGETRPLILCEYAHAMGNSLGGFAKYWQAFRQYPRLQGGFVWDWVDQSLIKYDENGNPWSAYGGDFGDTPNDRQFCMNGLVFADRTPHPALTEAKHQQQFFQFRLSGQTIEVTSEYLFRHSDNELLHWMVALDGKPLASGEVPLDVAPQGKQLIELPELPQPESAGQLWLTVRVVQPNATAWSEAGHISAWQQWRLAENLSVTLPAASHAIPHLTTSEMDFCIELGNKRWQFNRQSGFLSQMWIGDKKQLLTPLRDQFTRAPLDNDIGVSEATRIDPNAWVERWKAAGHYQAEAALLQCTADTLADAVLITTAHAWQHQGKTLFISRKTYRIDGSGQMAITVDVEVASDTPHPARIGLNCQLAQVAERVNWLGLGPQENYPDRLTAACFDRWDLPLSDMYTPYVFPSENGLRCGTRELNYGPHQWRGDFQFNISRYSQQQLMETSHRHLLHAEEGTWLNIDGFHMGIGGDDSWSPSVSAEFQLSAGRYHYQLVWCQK

[5] = molecular target: Type-1 angiotensin II receptor (Homo sapiens, UniProt P30556); assay: AT1 receptor antagonists, dose response, selectivity assay for APJ receptor antagonist project, cell-based, uHTS hits (AID 463214); assay type: functional;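 note: antagonist potency against angiotensin II stimulated AT1 response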
Sequence of Type-1 angiotensin II receptor (P30556 whole entry): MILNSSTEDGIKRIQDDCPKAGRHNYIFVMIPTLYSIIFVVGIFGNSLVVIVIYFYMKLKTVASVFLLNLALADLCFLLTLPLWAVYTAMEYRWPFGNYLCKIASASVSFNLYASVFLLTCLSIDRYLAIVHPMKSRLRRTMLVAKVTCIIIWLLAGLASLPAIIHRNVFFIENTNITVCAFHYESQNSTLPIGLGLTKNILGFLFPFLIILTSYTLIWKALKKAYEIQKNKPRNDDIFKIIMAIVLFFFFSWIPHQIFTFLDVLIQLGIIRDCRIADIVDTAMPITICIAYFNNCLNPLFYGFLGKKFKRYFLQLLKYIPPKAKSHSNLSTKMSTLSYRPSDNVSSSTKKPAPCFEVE

[6] = molecular target: Dual specificity tyrosine-phosphorylation-regulated kinase 1A (Rattus norvegicus, UniProt Q63470); assay type: biochemical, Homo sapiens
[7] = ADP-Glo luciferase interference without Dyrk1A, dose response, artefact control for Dyrk1A inhibitor project, biochemical, luminescence, cherry-pick, set 02 (AID 588348)
[8] = Luminescence Cell-Based Dose Confirmation HTS to Identify Inhibitors of Platelet Dense Granule Release. [Related pubchem assays: 1663 (Primary HTS), 1678 (Summary of Project)]; assay type: functional
[9] = molecular target: Luciferin 4-monooxygenase (Photinus pyralis, UniProt P08659); assay: firefly luciferase enzyme inhibitors, dose response, biochemical, luminescence (AID 1891)
Sequence of Luciferin 4-monooxygenase (Photinus pyralis, UniProt P08659) (P08659 whole entry): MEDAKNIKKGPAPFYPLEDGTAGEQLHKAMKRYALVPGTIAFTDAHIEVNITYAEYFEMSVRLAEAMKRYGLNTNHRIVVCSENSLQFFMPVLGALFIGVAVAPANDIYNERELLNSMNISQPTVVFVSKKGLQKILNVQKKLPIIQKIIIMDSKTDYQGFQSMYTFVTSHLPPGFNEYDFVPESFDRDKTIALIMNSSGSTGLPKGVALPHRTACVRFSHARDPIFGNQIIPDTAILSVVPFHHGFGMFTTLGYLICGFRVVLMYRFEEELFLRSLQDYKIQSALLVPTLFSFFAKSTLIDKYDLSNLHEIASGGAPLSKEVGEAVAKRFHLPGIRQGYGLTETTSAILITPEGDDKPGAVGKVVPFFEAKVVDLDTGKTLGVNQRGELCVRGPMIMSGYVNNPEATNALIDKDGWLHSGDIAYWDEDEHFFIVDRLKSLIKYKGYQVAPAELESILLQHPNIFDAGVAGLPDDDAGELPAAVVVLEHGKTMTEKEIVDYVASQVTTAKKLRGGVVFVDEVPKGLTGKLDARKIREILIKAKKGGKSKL

[10] = cells
[11] = molecular target: T2, Oxysterols receptor LXR-beta (Homo sapiens, UniProt P55055); assay type: functional, cell-based;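 note: Cell-based luminescence dose-response assay of agonist activity at LXR, run as a confirmatory counterscreen to a daf-12 agonist screen; HEK293 cells with Gal4-LXR fusion and GAL4-driven luciferase reporter; agonist potency from rising luciferase signal of a Gal4-LXR reporter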
T2 sequence (P55055 whole entry): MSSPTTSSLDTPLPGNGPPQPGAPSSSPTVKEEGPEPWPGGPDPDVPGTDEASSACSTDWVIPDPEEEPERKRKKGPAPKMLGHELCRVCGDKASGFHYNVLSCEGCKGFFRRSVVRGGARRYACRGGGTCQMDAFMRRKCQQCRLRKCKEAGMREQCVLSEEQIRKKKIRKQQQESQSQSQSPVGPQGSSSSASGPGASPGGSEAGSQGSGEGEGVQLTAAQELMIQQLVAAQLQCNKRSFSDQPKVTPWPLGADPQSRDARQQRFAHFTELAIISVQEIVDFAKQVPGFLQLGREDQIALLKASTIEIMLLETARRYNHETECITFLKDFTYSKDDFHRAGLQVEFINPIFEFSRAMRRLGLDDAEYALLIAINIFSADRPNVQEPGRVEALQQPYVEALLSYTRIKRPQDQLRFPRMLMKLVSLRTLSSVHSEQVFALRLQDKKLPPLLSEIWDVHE

[12] = cytotoxicity toward DRD oncogenic fibroblasts, dose response, cell-based, non-viral oncogenic, luminescence (AID 1934); assay type: functional; details: Homo sapiens
[13] = tested on: BJ; assay: cells; assay type: functional, cell-based; details: Homo sapiens
[14] = Luminescence Cell-Based Dose Response HTS to Identify Inhibitors of 5'UTR Stem-Loop Driven Prion Protein mRNA Translation in H4 Neuroglioblastoma Cells. [Related pubchem assays: 1827 (Project Summary), 1813 (Primary HTS)]; assay type: functional
[15] = Luminescence-based dose response cell-based high throughput screening assay for cytotoxic compounds using the IEC-6 intestinal epithelial cell line. [Related pubchem assays: 1858 (Summary AID.), 1825 (Counterscreen.), 1907 (Confirmation screen.)]; assay type: functional
[16] = cells; assay type: functional, cell-based
[17] = tested on: BJ; assay: cytotoxicity toward BJ-TERT-LT-ST fibroblasts, dose response, cell-based, RAS-independent, luminescence (AID 1935); assay type: functional; details: Homo sapiens;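 note: BJ fibroblasts immortalized with TERT plus LT and ST oncogenes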
[18] = tested on: BJ; assay: cytotoxicity toward Ras-transformed BJeLR fibroblasts, dose response, cell-based, alamar blue fluorescence, cherrypicked samples (AID 2631); assay type: functional; details: Homo sapiens;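 note: confirmatory dose-response assay in RAS-dependent BJ fibroblasts engineered with TERT, LT and ST, with cytotoxicity read by fluorescence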
[19] = inhibitors of firefly luciferase expression or activity, dose response, H4 neuroglioma cells, luminescence (AID 1990); assay type: functional, cell-based
[20] = tested on: BJ; assay: cytotoxicity toward BJ-TERT fibroblasts, dose response, cell-based, RAS-independent, luminescence (AID 1933); assay type: functional; details: Homo sapiens
[21] = inhibitors of SNCA 5'UTR-driven translation, confirmation, luminescence, H4 neuroglioblastoma cells, dose confirmation (AID 2454); assay type: functional, cell-based;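 note: H4 neuroglioblastoma cells carrying an alpha-synuclein 5'UTR luciferase reporter; potency for inhibition of the luciferase signal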
[22] = inhibitors of SNCA 5'UTR-driven reporter translation, confirmation, H4 neuroglioma cells, luminescence (AID 1988); assay type: functional, cell-based
[23] = luciferase reporter signal reduction – luminescence, H4-C neuroglioblastoma cells, dose response (AID 2458); assay type: functional, cell-based;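 note: H4 neuroglioblastoma cells stably carrying a luciferase reporter gene fusion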
[24] = molecular target: CAAX prenyl protease 2 (Homo sapiens, UniProt Q9Y256); assay: human Rce1 protease inhibitors, dose response, biochemical, yeast membranes, quenched-peptide fluorescence, cherry-pick (AID 588849)
Sequence of CAAX prenyl protease 2 (Homo sapiens, UniProt Q9Y256) (Q9Y256 whole entry): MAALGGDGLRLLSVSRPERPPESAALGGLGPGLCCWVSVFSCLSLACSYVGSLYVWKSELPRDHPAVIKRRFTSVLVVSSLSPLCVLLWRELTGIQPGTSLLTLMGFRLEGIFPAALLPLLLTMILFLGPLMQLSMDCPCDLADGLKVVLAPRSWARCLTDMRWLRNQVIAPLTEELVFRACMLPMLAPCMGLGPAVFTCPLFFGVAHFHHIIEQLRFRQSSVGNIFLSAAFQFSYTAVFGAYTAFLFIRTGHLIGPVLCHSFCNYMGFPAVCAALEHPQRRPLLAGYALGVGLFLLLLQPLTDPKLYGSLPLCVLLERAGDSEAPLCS

[25] = molecular target: CAAX prenyl protease 1 (Saccharomyces cerevisiae S288c, UniProt P47154); assay: Ste24 protease inhibitors, dose response, biochemical, S. cerevisiae, plate reader, cherry-pick (AID 488815)
Sequence of CAAX prenyl protease 1 (P47154 whole entry): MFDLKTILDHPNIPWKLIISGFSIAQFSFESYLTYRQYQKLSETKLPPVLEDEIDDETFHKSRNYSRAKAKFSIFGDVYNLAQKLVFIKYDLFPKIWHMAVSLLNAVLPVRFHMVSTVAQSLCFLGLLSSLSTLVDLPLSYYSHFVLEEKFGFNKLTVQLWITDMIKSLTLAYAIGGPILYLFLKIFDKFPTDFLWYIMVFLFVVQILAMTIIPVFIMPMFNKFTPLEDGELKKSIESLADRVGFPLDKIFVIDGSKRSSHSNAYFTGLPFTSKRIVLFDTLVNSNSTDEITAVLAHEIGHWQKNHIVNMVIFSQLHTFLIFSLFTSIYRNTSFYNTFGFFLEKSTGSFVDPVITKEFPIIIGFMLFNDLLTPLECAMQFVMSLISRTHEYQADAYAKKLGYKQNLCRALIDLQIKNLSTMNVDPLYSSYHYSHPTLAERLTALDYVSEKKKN

[26] = molecular target: T3, Streptokinase A (Streptococcus pyogenes serotype M1, UniProt P10520); assay: S. pyogenes streptokinase expression inhibitors, potency, dose response, plasminogen activation absorbance, OD405 (AID 1914); assay type: functional, Streptococcus pyogenes M1 GAS;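 note: secreted streptokinase activity via plasminogen activation per viability signal from cell pellet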
T3 sequence (P10520 whole entry): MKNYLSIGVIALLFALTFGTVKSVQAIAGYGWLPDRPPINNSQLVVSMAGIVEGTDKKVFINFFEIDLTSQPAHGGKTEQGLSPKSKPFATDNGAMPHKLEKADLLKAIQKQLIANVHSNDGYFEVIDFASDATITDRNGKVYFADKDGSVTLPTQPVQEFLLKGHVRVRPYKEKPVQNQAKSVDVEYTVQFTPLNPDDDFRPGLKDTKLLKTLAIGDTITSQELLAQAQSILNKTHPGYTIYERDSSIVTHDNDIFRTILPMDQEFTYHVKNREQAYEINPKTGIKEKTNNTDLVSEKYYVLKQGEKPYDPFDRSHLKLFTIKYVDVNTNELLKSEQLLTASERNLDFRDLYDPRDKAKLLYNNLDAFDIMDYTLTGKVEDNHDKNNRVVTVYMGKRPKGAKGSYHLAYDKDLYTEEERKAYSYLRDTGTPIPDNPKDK

[27] = C. albicans growth with fluconazole, confirmation, fluorescence, retest (AID 2467); assay type: functional, cell-based
[28] = NIH-3T3 fibroblast cytotoxicity, dose response, cytotoxicity control, cell-based, fluorescence, Alamar Blue, secondary assay (AID 2327); assay type: functional;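 note: NIH-3T3 mouse fibroblasts cultured with fluconazole at 8 µg/mL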
[29] = tested on: Streptococcus; assay: Group A Streptococcus viability loss, dose response, counter-screen for streptokinase expression inhibitor project, luminescence, BacTiterGlo (AID 1915); assay type: functional, organism-based;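 note: potency for reduction of bacterial viability or growth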
[30] = molecular target: CAAX prenyl protease 2 (Saccharomyces cerevisiae S288c, UniProt Q03530); assay type: biochemical
Sequence of CAAX prenyl protease 2 (Saccharomyces cerevisiae S288c, UniProt Q03530) (Q03530 whole entry): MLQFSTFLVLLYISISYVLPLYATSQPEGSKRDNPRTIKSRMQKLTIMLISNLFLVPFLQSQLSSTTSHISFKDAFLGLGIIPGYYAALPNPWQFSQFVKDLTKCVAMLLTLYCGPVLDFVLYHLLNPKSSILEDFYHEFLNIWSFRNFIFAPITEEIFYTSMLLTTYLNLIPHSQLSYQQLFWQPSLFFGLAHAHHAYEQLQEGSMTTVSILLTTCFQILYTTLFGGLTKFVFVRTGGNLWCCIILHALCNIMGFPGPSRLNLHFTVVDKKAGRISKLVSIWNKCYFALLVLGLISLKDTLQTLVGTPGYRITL

[31] = tested on: Streptococcus sp. 'group A'; assay: growth inhibition of control SK(-) GAS strain, dose response, counter-screen for streptokinase expression inhibitor project, luminescence, kanamycin, BacTiterGlo, confirmation (AID 1900); assay type: functional, organism-based
[32] = molecular target: T4, Short transient receptor potential channel 4 (Mus musculus, UniProt Q9QUQ5); assay: TRPC4 inhibitor concentration-response, dose response, cell-based, HEK293 TRPC4/mu-opioid, DAMGO stimulus, Fluo-4 (AID 492994); assay type: functional
T4 sequence (Q9QUQ5 whole entry): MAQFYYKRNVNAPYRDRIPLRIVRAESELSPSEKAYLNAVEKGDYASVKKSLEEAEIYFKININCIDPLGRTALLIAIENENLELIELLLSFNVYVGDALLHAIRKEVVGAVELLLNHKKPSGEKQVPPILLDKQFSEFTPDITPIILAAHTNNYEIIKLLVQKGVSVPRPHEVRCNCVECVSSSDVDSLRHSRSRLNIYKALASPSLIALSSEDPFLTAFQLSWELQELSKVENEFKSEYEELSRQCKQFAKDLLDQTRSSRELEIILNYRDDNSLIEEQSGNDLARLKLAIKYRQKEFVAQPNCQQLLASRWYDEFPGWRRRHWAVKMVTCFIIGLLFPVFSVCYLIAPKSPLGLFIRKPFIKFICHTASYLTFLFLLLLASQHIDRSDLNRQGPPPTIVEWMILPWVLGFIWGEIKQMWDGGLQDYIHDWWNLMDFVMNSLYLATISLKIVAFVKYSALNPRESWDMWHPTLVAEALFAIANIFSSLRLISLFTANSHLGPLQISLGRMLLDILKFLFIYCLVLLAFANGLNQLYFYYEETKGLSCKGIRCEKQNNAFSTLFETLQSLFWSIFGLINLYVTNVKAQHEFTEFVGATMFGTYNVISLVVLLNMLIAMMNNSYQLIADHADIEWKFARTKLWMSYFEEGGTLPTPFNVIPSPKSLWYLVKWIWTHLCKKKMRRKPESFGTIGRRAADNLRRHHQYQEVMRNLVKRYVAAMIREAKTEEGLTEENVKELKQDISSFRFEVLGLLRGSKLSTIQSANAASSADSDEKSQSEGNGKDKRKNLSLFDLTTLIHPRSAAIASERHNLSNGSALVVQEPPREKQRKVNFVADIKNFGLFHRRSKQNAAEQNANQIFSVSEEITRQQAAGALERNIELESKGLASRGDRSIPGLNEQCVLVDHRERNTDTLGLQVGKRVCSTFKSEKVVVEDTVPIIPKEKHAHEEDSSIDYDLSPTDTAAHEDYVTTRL

[33] = molecular target: T4, Short transient receptor potential channel 4; assay: SAR Analysis for the identification of selective inhibits of the transient receptor potential cation channel C4 (TRPC4): Automated Electrophysiology. [Related pubchem assays (depositor defined):AID2256]; assay type: functional
[34] = molecular target: Short transient receptor potential channel 6 (Mus musculus, UniProt Q61143); assay: TRPC6 inhibition potency of TRPC4 inhibitor analogs, dose response, selectivity assay for selective TRPC4 inhibitor project, HEK293 cells, membrane potential dye, IC50 (AID 492987); assay type: functional, cell-based
Sequence of Short transient receptor potential channel 6 (Q61143 whole entry): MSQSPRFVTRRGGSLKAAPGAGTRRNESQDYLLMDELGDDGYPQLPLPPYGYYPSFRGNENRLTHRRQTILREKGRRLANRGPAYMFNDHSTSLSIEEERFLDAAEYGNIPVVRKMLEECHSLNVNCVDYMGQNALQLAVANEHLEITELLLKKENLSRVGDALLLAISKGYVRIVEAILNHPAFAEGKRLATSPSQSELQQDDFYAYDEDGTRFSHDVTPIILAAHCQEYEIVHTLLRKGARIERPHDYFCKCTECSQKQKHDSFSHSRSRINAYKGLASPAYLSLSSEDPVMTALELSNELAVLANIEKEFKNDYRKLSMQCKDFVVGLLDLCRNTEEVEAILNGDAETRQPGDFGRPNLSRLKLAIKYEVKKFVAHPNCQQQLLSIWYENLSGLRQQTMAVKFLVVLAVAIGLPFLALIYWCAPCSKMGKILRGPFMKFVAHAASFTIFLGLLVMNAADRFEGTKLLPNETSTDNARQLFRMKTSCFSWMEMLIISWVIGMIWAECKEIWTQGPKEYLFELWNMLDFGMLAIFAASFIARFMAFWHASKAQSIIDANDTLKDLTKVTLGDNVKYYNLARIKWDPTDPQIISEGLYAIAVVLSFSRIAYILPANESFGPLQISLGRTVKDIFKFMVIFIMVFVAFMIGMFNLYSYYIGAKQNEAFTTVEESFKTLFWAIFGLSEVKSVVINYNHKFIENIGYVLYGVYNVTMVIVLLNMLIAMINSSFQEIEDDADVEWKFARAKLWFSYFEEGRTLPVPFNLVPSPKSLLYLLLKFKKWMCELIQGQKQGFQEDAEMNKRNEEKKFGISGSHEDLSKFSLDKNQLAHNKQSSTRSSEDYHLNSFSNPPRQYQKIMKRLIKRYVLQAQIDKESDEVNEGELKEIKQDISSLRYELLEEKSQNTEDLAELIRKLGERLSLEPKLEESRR

[35] = molecular target: T4, Short transient receptor potential channel 4; assay: TRPC4 inhibition under acetylcholine activation, SAR follow-up, cell-based, acetylcholine stimulus, HEK293 TRPC4, Fluo-4 (AID 492996); assay type: functional
[36] = molecular target: Luciferin 4-monooxygenase (Photuris pensylvanica, UniProt Q27757); assay: firefly luciferase enzyme inhibitors, dose response, counter-screen for HSF-1 reporter inhibitor project, biochemical, Cell Titer Glo, luminescence, cherry-picks (AID 588847)
Sequence of Luciferin 4-monooxygenase (Photuris pensylvanica, UniProt Q27757) (Q27757 whole entry): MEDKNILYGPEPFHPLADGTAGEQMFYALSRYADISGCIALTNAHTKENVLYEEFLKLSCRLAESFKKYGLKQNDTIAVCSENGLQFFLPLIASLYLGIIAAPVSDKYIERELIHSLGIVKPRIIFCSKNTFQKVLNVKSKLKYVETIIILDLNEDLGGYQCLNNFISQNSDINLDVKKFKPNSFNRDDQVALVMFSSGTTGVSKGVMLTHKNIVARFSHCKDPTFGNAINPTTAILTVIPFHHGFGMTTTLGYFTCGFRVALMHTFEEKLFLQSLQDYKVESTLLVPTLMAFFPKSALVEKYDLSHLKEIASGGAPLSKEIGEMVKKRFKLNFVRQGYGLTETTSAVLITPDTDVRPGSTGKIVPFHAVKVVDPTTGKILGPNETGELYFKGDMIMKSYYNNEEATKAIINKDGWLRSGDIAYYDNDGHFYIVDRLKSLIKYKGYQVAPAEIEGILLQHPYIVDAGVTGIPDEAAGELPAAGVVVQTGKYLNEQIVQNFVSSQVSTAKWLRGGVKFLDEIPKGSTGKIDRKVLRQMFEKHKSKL

Compound: CC(C)(C)c1ccc(C(=O)N2CCC(=O)N(C(CO)Cc3ccccc3)CC2)cc1 (stereo unspecified)
- EC50 [1]: > 53 µM (inactive)
- AC50 [2]: 173 µM (active)
- AC50 [3]: 347 µM (active)

Compound: O=C(CCC(=O)OCC(=O)c1ccc(Cl)cc1Cl)Nc1cccc2cccnc12
- EC50 [4]: > 40 µM (inactive)
- IC50 [5]: > 40 µM (not active)

Compound: Cc1ccccc1C(=O)O/N=C(\N)c1ccccc1
- AC50 [6]: 62.5 µM (active)
- AC50 [7]: 60.9 µM (active)
- EC50 [8]: 2.72 µM (active)
- EC50 [9]: 3.42 µM (active)
- EC50 [10]: > 67.5 µM (inactive)
- EC50 [11]: > 67.5 µM (inactive)

Compound: C#CCOc1ccc(C2C3=C(O)OCC3=Nc3cc4c(cc32)OCO4)cc1OC (stereo unspecified)
- EC50 [12]: 900 nM (inconclusive)
- EC50 [13]: 2.72 µM (inconclusive)
- EC50 [14]: < 100 nM (active)
- IC50 [15]: 47.1 nM (active)
- EC50 [16]: 371 nM (active)
- EC50 [17]: 942 nM (active)
- EC50 [18]: < 104 nM (active)
- EC50 [19]: < 100 nM (active)
- EC50 [20]: 3.14 µM (inconclusive)
- EC50 [21]: 231 nM (active)
- EC50 [22]: < 100 nM (active)
- EC50 [23]: 234 nM (active)

Compound: CCCCCc1ccc(OCCOCC[n+]2cn(C)c3ccccc32)c(CCCCC)c1
- AC50 [24]: 17.9 µM (active)
- AC50 [25]: 13.1 µM (active)
- EC50 [26]: 13.5 µM (active)
- EC50 [27]: 1.31 µM (active)
- EC50 [28]: > 150 µM (inactive)
- EC50 [29]: 16.1 µM (inconclusive)
- AC50 [30]: 9.1 µM (active)
- EC50 [31]: 6.43 µM (active)

Compound: Cc1cc(N2CCN(c3ccncc3)CC2)nc2ccccc12
- IC50 [32]: 19.9 µM (active)
- IC50 [33]: 8.18 µM (active)
- IC50 [34]: 11.4 µM (active)
- IC50 [35]: 15.2 µM (active)

Compound: C[C@]12C=CC(=O)C=C1CC[C@@H]1[C@@H]2[C@@H](O)C[C@@]2(C)[C@H]1CC[C@]2(O)C(=O)CO [PREDNISOLONE]
- AC50 [36]: > 52 µM (inactive)
